In the NIST ThermoML archive (doi:10.1021/je700414c):
Numbers after ± are expanded uncertainties.

Assay: excess molar enthalpy (molar enthalpy of mixing); xn = mol fraction of the nth substance listed
Details: 303.15 K, 101 kPa, Liquid

Structure (SMILES): CNC(C)=O [N-methylacetamide] + Cc1cc(C)cc(C)c1
- excess molar enthalpy (x1 = 0.1463): 0.0817 ± 0.00454 kcal/mol
- excess molar enthalpy (x1 = 0.2448): 0.0927 ± 0.00502 kcal/mol
- excess molar enthalpy (x1 = 0.3271): 0.103 ± 0.0055 kcal/mol
- excess molar enthalpy (x1 = 0.4098): 0.105 ± 0.0055 kcal/mol
- excess molar enthalpy (x1 = 0.4989): 0.104 ± 0.0055 kcal/mol
- excess molar enthalpy (x1 = 0.5612): 0.0978 ± 0.00526 kcal/mol
- excess molar enthalpy (x1 = 0.6649): 0.0837 ± 0.00454 kcal/mol
- excess molar enthalpy (x1 = 0.7283): 0.0758 ± 0.00406 kcal/mol
- excess molar enthalpy (x1 = 0.8071): 0.0607 ± 0.00335 kcal/mol
- excess molar enthalpy (x1 = 0.884): 0.0421 ± 0.00263 kcal/mol

Structure (SMILES): CNC(C)=O [N-methylacetamide] + Cc1ccc(C)cc1
- excess molar enthalpy (x1 = 0.1224): 0.0667 ± 0.00359 kcal/mol
- excess molar enthalpy (x1 = 0.1703): 0.0696 ± 0.00382 kcal/mol
- excess molar enthalpy (x1 = 0.2407): 0.0705 ± 0.00382 kcal/mol
- excess molar enthalpy (x1 = 0.3474): 0.0705 ± 0.00382 kcal/mol
- excess molar enthalpy (x1 = 0.4018): 0.0679 ± 0.00382 kcal/mol
- excess molar enthalpy (x1 = 0.4704): 0.0624 ± 0.00359 kcal/mol
- excess molar enthalpy (x1 = 0.6138): 0.0514 ± 0.00287 kcal/mol
- excess molar enthalpy (x1 = 0.7126): 0.0402 ± 0.00239 kcal/mol
- excess molar enthalpy (x1 = 0.7529): 0.0366 ± 0.00215 kcal/mol
- excess molar enthalpy (x1 = 0.8617): 0.0198 ± 0.00143 kcal/mol

Structure (SMILES): CNC(C)=O [N-methylacetamide] + Cc1ccccc1
- excess molar enthalpy (x1 = 0.1142): 0.0619 ± 0.0043 kcal/mol
- excess molar enthalpy (x1 = 0.2405): 0.0619 ± 0.0043 kcal/mol
- excess molar enthalpy (x1 = 0.2954): 0.0571 ± 0.00406 kcal/mol
- excess molar enthalpy (x1 = 0.377): 0.0528 ± 0.00382 kcal/mol
- excess molar enthalpy (x1 = 0.4002): 0.0521 ± 0.00382 kcal/mol
- excess molar enthalpy (x1 = 0.4365): 0.0478 ± 0.00359 kcal/mol
- excess molar enthalpy (x1 = 0.4708): 0.0442 ± 0.00335 kcal/mol
- excess molar enthalpy (x1 = 0.5227): 0.0428 ± 0.00335 kcal/mol
- excess molar enthalpy (x1 = 0.5843): 0.039 ± 0.00311 kcal/mol
- excess molar enthalpy (x1 = 0.6502): 0.0301 ± 0.00263 kcal/mol
- excess molar enthalpy (x1 = 0.7076): 0.0253 ± 0.00239 kcal/mol
- excess molar enthalpy (x1 = 0.7798): 0.0179 ± 0.00191 kcal/mol
- excess molar enthalpy (x1 = 0.9016): 0.00741 ± 0.00143 kcal/mol

Structure (SMILES): CNC(C)=O [N-methylacetamide] + c1ccccc1
- excess molar enthalpy (x1 = 0.0848): 0.0511 ± 0.00478 kcal/mol
- excess molar enthalpy (x1 = 0.1579): 0.0562 ± 0.00502 kcal/mol
- excess molar enthalpy (x1 = 0.2196): 0.0576 ± 0.00526 kcal/mol
- excess molar enthalpy (x1 = 0.2809): 0.0564 ± 0.00502 kcal/mol
- excess molar enthalpy (x1 = 0.3924): 0.0516 ± 0.00478 kcal/mol
- excess molar enthalpy (x1 = 0.4282): 0.0464 ± 0.0043 kcal/mol
- excess molar enthalpy (x1 = 0.4628): 0.0421 ± 0.00406 kcal/mol
- excess molar enthalpy (x1 = 0.495): 0.0392 ± 0.00382 kcal/mol
- excess molar enthalpy (x1 = 0.5438): 0.0344 ± 0.00359 kcal/mol
- excess molar enthalpy (x1 = 0.567): 0.0335 ± 0.00359 kcal/mol
- excess molar enthalpy (x1 = 0.6331): 0.0294 ± 0.00335 kcal/mol
- excess molar enthalpy (x1 = 0.766): 0.0172 ± 0.00263 kcal/mol
- excess molar enthalpy (x1 = 0.8432): 0.0124 ± 0.00215 kcal/mol
- excess molar enthalpy (x1 = 0.8931): 0.00837 ± 0.00191 kcal/mol

Structure (SMILES): CNC=O [N-methylformamide] + Cc1ccc(C)cc1
- excess molar enthalpy (x1 = 0.0589): 0.0696 ± 0.00382 kcal/mol
- excess molar enthalpy (x1 = 0.0809): 0.0789 ± 0.0043 kcal/mol
- excess molar enthalpy (x1 = 0.1371): 0.105 ± 0.0055 kcal/mol
- excess molar enthalpy (x1 = 0.648): 0.117 ± 0.00621 kcal/mol
- excess molar enthalpy (x1 = 0.7042): 0.105 ± 0.0055 kcal/mol
- excess molar enthalpy (x1 = 0.7619): 0.0911 ± 0.00478 kcal/mol
- excess molar enthalpy (x1 = 0.8196): 0.0722 ± 0.00406 kcal/mol
- excess molar enthalpy (x1 = 0.8715): 0.0533 ± 0.00311 kcal/mol
- excess molar enthalpy (x1 = 0.9536): 0.0241 ± 0.00167 kcal/mol

Structure (SMILES): CNC=O [N-methylformamide] + Cc1ccccc1
- excess molar enthalpy (x1 = 0.1531): 0.0975 ± 0.00526 kcal/mol
- excess molar enthalpy (x1 = 0.1852): 0.102 ± 0.0055 kcal/mol
- excess molar enthalpy (x1 = 0.2625): 0.11 ± 0.00574 kcal/mol
- excess molar enthalpy (x1 = 0.3018): 0.112 ± 0.00598 kcal/mol
- excess molar enthalpy (x1 = 0.3404): 0.115 ± 0.00598 kcal/mol
- excess molar enthalpy (x1 = 0.3983): 0.115 ± 0.00598 kcal/mol
- excess molar enthalpy (x1 = 0.4643): 0.116 ± 0.00598 kcal/mol
- excess molar enthalpy (x1 = 0.4821): 0.114 ± 0.00598 kcal/mol
- excess molar enthalpy (x1 = 0.5253): 0.11 ± 0.00574 kcal/mol
- excess molar enthalpy (x1 = 0.5951): 0.103 ± 0.0055 kcal/mol
- excess molar enthalpy (x1 = 0.6171): 0.102 ± 0.0055 kcal/mol
- excess molar enthalpy (x1 = 0.645): 0.0961 ± 0.00502 kcal/mol
- excess molar enthalpy (x1 = 0.7416): 0.0765 ± 0.00406 kcal/mol
- excess molar enthalpy (x1 = 0.8178): 0.0574 ± 0.00335 kcal/mol
- excess molar enthalpy (x1 = 0.9166): 0.0304 ± 0.00191 kcal/mol

Structure (SMILES): CNC=O [N-methylformamide] + c1ccccc1
- excess molar enthalpy (x1 = 0.0011): 0.00263 ± 0.000956 kcal/mol
- excess molar enthalpy (x1 = 0.0019): 0.00454 ± 0.000956 kcal/mol
- excess molar enthalpy (x1 = 0.1401): 0.081 ± 0.0043 kcal/mol
- excess molar enthalpy (x1 = 0.2247): 0.0918 ± 0.00502 kcal/mol
- excess molar enthalpy (x1 = 0.2851): 0.0968 ± 0.00526 kcal/mol
- excess molar enthalpy (x1 = 0.3412): 0.0994 ± 0.00526 kcal/mol
- excess molar enthalpy (x1 = 0.372): 0.101 ± 0.00526 kcal/mol
- excess molar enthalpy (x1 = 0.428): 0.0997 ± 0.00526 kcal/mol
- excess molar enthalpy (x1 = 0.4525): 0.0978 ± 0.00526 kcal/mol
- excess molar enthalpy (x1 = 0.5333): 0.0927 ± 0.00502 kcal/mol
- excess molar enthalpy (x1 = 0.6012): 0.0837 ± 0.00454 kcal/mol
- excess molar enthalpy (x1 = 0.6365): 0.0796 ± 0.0043 kcal/mol
- excess molar enthalpy (x1 = 0.7237): 0.065 ± 0.00359 kcal/mol
- excess molar enthalpy (x1 = 0.8274): 0.0425 ± 0.00263 kcal/mol
